A value given as a limit tells only on which side of the number the result lay.

The experiment concerns Eschericia coli (E. coli) strain ATCC25922. Nature of the experiment: Standard microdilution assay, MIC against E. coli ATCC25922. Conditions: Escherichia coli; E. coli strain ATCC25922, standard microdilution assay; cutoff 16 micrograms/mL; read-out: MIC E. Coli. It counts as cell-based. The method in brief: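 Scoring as + or − used a 16 micrograms/mL cutoff on minimum inhibitory concentrations. These came from CLSI-standard microdilution, quality-controlled with reference strains tested in the same run.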
On the technique in general: In broth dilution the organism is exposed to a series of concentrations in liquid medium.
Consider `C[C@H](N)CCCc1cc(Cl)c(F)c(-c2cc3cn(-c4ccc(CN[C@@H](C)CCNC(=N)N)cc4)c(=O)nc3[nH]2)c1` [Compound 195], for which the MIC was below 16 µg/mL.
Regarding `C[C@H](N)CCCc1cc(Cl)c(F)c(-c2cc3cn(-c4ccc([C@@H](CO)NCCCNC(=N)N)cc4)c(=O)nc3[nH]2)c1` [Compound 44], the MIC was below 16 µg/mL.
As for `C[C@H](N)CCCc1cc(Cl)c(F)c(-c2cc3cn(-c4ccc(CNCC[C@@H](N)CO)cc4)c(=O)nc3[nH]2)c1` [Compound 167], the MIC is below 16 µg/mL.
The figure for `C[C@H](N)CCCc1cc(Cl)c(F)c(-c2cc3cn(-c4ccc(CNCc5nn[nH]n5)cc4)c(=O)nc3[nH]2)c1` [Compound 162] is above 16 µg/mL.
`C[C@H](N)CCCc1cc(SC(F)(F)F)cc(-c2cc3cn(-c4ccc([C@H](CCF)NCCCNC(=N)N)cc4)c(=O)nc3[nH]2)c1` [Compound 75]: the MIC is below 16 µg/mL.
Regarding `C[C@H](N)CCCc1cc(SC(F)(F)F)cc(-c2cc3cn(-c4ccc(CNCC#N)cc4)c(=O)nc3[nH]2)c1` [Compound 170], the MIC was above 16 µg/mL.
Turning to `COc1ccc(Cn2cc(C[C@H](NCCCNC(=N)N)c3ccc(-n4cc5cc(-c6cc(CCC[C@H](C)N)cc(Cl)c6F)[nH]c5nc4=O)cc3)nn2)cc1` [Compound 41], the MIC is below 16 µg/mL.
As to `C[C@H](N)CCCc1cc(Cl)c(F)c(-c2cc3cn(-c4ccc([C@@H](NCCCNC(=N)N)c5cccnc5)cc4)c(=O)nc3[nH]2)c1` [Compound 61], the MIC is below 16 µg/mL.
For `C[C@H](NCCCNC(=N)N)c1ccc(-n2cc3cc(-c4cc(SC(F)(F)F)cc([C@H](O)CC[C@@H](N)CO)c4)[nH]c3nc2=O)cc1` [Compound 110], the minimum inhibitory concentration (MIC) was below 16 µg/mL.
Take `C[C@H](N)CCCc1cc(Cl)c(F)c(-c2cc3cn(-c4cccc(CNCCCNC(=N)N)c4)c(=O)nc3[nH]2)c1` [Compound 90]: the minimum inhibitory concentration (MIC) was below 16 µg/mL.
As to `C[C@H](N)CCCc1cc(-c2cc3cn(-c4ccc([C@H](C)NCCCNC(=N)N)cc4)c(=O)nc3[nH]2)c(F)c(C(F)(F)F)c1F` [Compound 214], the MIC was below 16 µg/mL.
The figure for `C[C@H](NCCCNC(=N)N)c1ccc(-n2cc3cc(-c4cc(CCC[C@@H](N)CF)cc(SC(F)(F)F)c4)[nH]c3nc2=O)cc1` [Compound 117] is below 16 µg/mL; for `CC(=O)Oc1ccccc1C(=O)OC[C@H](N)CCCc1cc(Cl)c(F)c(-c2cc3cn(-c4ccc([C@H](C)NCCCNC(=N)N)cc4)c(=O)nc3[nH]2)c1` [Compound 316] it is below 16 µg/mL; for `CCOC(=N)CNCc1ccc(-n2cc3cc(-c4cc(CCC[C@H](C)N)cc(Cl)c4F)[nH]c3nc2=O)cc1` [Compound 166] it is above 16 µg/mL.
With `C[C@H](N)CCCc1cc(Cl)c(F)c(-c2cc3cn(-c4ccc([C@@H](CF)NCCCNC(=N)N)cc4)c(=O)nc3[nH]2)c1` [Compound 95] the figure was below 16 µg/mL.
In the case of `C[C@H](N)CCCc1cc(SC(F)(F)F)cc(-c2cc3cn(-c4ccc([C@H](Cn5ccnn5)NCCCNC(=N)N)cc4)c(=O)nc3[nH]2)c1` [Compound 88], the MIC was below 16 µg/mL.
With `C[C@H](N)CCCc1cc(OC(F)(F)F)c(F)c(-c2cc3cn(-c4ccc(CN[C@H](CO)CCNC(=N)N)cc4)c(=O)nc3[nH]2)c1` [Compound 250] the figure was below 16 µg/mL; with `O=c1nc2[nH]ccc2cn1-c1ccc(CNCc2cccnc2)cc1` [Compound 109], above 16 µg/mL.
Turning to `C[C@H](N)CCCc1cc(Cl)c(F)c(-c2cc3cn(-c4ccc([C@H](C)NCC[C@@H](CCO)NC(=N)N)cc4)c(=O)nc3[nH]2)c1` [Compound 247], the minimal inhibitory concentration (MIC) was below 16 µg/mL.
Regarding `C[C@H](N)CCCc1cc(Cl)c(F)c(-c2cc3cn(-c4ccc(CNCc5cnc(N)s5)cc4)c(=O)nc3[nH]2)c1` [Compound 158], the MIC was above 16 µg/mL.
In the case of `C[C@H](N)CCCc1cc(-c2cc3cn(-c4ccc([C@@H](CO)NCCCNC(=N)N)cc4)c(=O)nc3[nH]2)cc(C(F)(F)F)c1` [Compound 51], the minimum inhibitory concentration (MIC) is below 16 µg/mL.
For `C[C@H](N)CCCc1cc(Cl)c(F)c(-c2cc3cn(-c4ccc([C@H](C)NCC[C@H](CCC#N)NC(=N)N)cc4)c(=O)nc3[nH]2)c1` [Compound 314], the minimum inhibitory concentration (MIC) was below 16 µg/mL.
Take `CSC[C@@H](CCN[C@@H](C)c1ccc(-n2cc3cc(-c4cc(CCC[C@H](C)N)cc(Cl)c4F)[nH]c3nc2=O)cc1)NC(=N)N` [Compound 287]: the MIC was below 16 µg/mL.
The figure for `C[C@H](N)CCCc1cc(Cl)c(F)c(-c2cc3cn(-c4ccc([C@H](N)CCCCNC(=N)N)cc4)c(=O)nc3[nH]2)c1` [Compound 92] is below 16 µg/mL; for `C[C@H](N)CCCc1cc(Cl)c(F)c(-c2cc3cn(-c4ccc([C@H](C)NCC[C@H](CCCN)NC(=N)N)cc4)c(=O)nc3[nH]2)c1` [Compound 282] it is below 16 µg/mL.
Regarding `C[C@H](N)CCCc1cc(Cl)c(F)c(-c2cc3cn(-c4ccc([C@@H](NCCCNC(=N)N)C5CC5)cc4)c(=O)nc3[nH]2)c1` [Compound 102], the minimal inhibitory concentration (MIC) was below 16 µg/mL.
For `C[C@H](N)CCCc1cc(OC(F)(F)F)c(F)c(-c2cc3cn(-c4ccc([C@H](C)N[C@H](C)CCNC(=N)N)cc4)c(=O)nc3[nH]2)c1` [Compound 233], the MIC is below 16 µg/mL.
`C[C@H](N)CCCc1cc(Cl)c(F)c(-c2cc3cn(-c4ccc(CNCC[C@@H](C)N)cc4)c(=O)nc3[nH]2)c1` [Compound 187]: the minimal inhibitory concentration (MIC) was below 16 µg/mL.
Turning to `C=CC[C@H](NCCCNC(=N)N)c1ccc(-n2cc3cc(-c4cc(CCC[C@H](C)N)cc(SC(F)(F)F)c4)[nH]c3nc2=O)cc1` [Compound 11], the MIC was below 16 µg/mL.
The figure for `C[C@H](N)CCCc1cc(-c2cc3cn(-c4ccc([C@@H](NCCCNC(=N)N)C(N)=O)cc4)c(=O)nc3[nH]2)cc(C(F)(F)F)c1` [Compound 59] is below 16 µg/mL; for `C[C@H](N)CCCc1cc(OC(F)(F)F)c(F)c(-c2cc3cn(-c4ccc([C@H](C)NCC[C@@H](CN)NC(=N)N)cc4)c(=O)nc3[nH]2)c1` [Compound 278] it is below 16 µg/mL.
In the case of `C[C@H](N)CCCc1cc(-c2cc3cn(-c4ccc([C@H](C)NCC[C@@H](C)N)cc4)c(=O)nc3[nH]2)cc(C(F)(F)F)c1` [Compound 199], the MIC was below 16 µg/mL.
For `C[C@H](N)CCCc1cc(Cl)c(F)c(-c2cn3cc(-c4ccc([C@H](C)NCCCNC(=N)N)cc4)c(=O)nc3[nH]2)c1` [Compound 302], the MIC is below 16 µg/mL.
Turning to `COc1ccc([C@H](NCCCNC(=N)N)c2ccc(-n3cc4cc(-c5cc(CCC[C@H](C)N)cc(C(F)(F)F)c5)[nH]c4nc3=O)cc2)cc1` [Compound 17], the MIC is below 16 µg/mL.
With `CC[C@@H](CCNCc1ccc(-n2cc3cc(-c4cc(CCC[C@H](C)N)cc(Cl)c4F)[nH]c3nc2=O)cc1)NC(=N)N` [Compound 183], the MIC was below 16 µg/mL.
With `C[C@H](N)CCCc1cc(Cl)c(F)c(-c2cc3cn(-c4ccc([C@@H](N)CCN(C(=O)c5ccccc5)c5nccs5)cc4)c(=O)nc3[nH]2)c1` [Compound 161] the figure was above 16 µg/mL; with `C=CCN(CCCN[C@@H](C)c1ccc(-n2cc3cc(-c4cc(CCC[C@H](C)N)cc(C(F)(F)F)c4)[nH]c3nc2=O)cc1)C(=N)N` [Compound 215], below 16 µg/mL; with `C[C@H](N)CCCc1cc(Cl)c(F)c(-c2cc3cn(-c4ccc(CNCc5ccncc5)cc4)c(=O)nc3[nH]2)c1` [Compound 127], above 16 µg/mL.
As to `COCC[C@H](NCCCNC(=N)N)c1ccc(-n2cc3cc(-c4cc(CCC[C@H](C)N)cc(SC(F)(F)F)c4)[nH]c3nc2=O)cc1` [Compound 30], the MIC was below 16 µg/mL.
With `C=CC[C@H](CCN[C@@H](C)c1ccc(-n2cc3cc(-c4cc(CCC[C@H](C)N)cc(OC(F)(F)F)c4F)[nH]c3nc2=O)cc1)NC(=N)N` [Compound 260] the figure was below 16 µg/mL; with `C[C@H](N)CCCc1cc(-c2cc3cn(-c4cccc(CCNCCCNC(=N)N)c4)c(=O)nc3[nH]2)cc(C(F)(F)F)c1` [Compound 62], below 16 µg/mL; with `C[C@H](NCCCNC(=N)N)c1ccc(-n2cc3cc(-c4cc(CCC[C@@H](N)CO)cc(SC(F)(F)F)c4)[nH]c3nc2=O)cc1` [Compound 31], below 16 µg/mL.
Regarding `C[C@H](N)CCCc1cc(Cl)c(F)c(-c2cc3cn(-c4ccc([C@H](C)NCC[C@H](CCCO)NC(=N)N)cc4)c(=O)nc3[nH]2)c1` [Compound 275], the MIC was below 16 µg/mL.
As for `C[C@H](NCCCNC(=N)N)c1ccc(-n2cc3cc(-c4cc(SC(F)(F)F)cc([C@H](O)CCC(N)C(O)CO)c4)[nH]c3nc2=O)cc1` (stereo partly drawn) [Compound 134], the minimal inhibitory concentration (MIC) is below 16 µg/mL.
Turning to `C[C@H](N)CCCc1cc(-c2cc3cn(-c4ccc([C@H](N)CCCCNC(=N)N)cc4)c(=O)nc3[nH]2)cc(C(F)(F)F)c1` [Compound 235], the minimal inhibitory concentration (MIC) was below 16 µg/mL.
On to `CSC[C@H](N)COCc1cc(SC(F)(F)F)cc(-c2cc3cn(-c4ccc([C@H](C)NCCCNC(=N)N)cc4)c(=O)nc3[nH]2)c1` [Compound 83], for which the MIC was below 16 µg/mL.
Regarding `C[C@H](N)CCCc1cc(Cl)c(F)c(-c2cc3cn(-c4ccc([C@H](C)NCC[C@@H](CCCN)NC(=N)N)cc4)c(=O)nc3[nH]2)c1` [Compound 281], the MIC is below 16 µg/mL.
As for `CC(N)CCNCc1ccc(-n2cc3cc(-c4cc(CCC[C@H](C)N)cc(Cl)c4F)[nH]c3nc2=O)cc1` (stereo partly drawn) [Compound 160], the minimal inhibitory concentration (MIC) is below 16 µg/mL.
As to `C[C@H](N)CCCc1cc(Cl)c(F)c(-c2cc3cn(-c4ccc(CNCC[C@@H](N)C5CC5)cc4)c(=O)nc3[nH]2)c1` [Compound 148], the MIC is below 16 µg/mL.
`CNCCNCc1ccc(-n2cc3cc[nH]c3nc2=O)cc1` [Compound 142]: the minimum inhibitory concentration (MIC) was above 16 µg/mL.
Regarding `CC[C@@H](N)CCNCc1ccc(-n2cc3cc(-c4cc(CCC[C@H](C)N)cc(Cl)c4F)[nH]c3nc2=O)cc1` [Compound 197], the MIC is below 16 µg/mL.
In the case of `C[C@H](N)CCCc1cc(SC(F)(F)F)cc(-c2cc3cn(-c4ccc(CNCc5ccc(=O)[nH]c5)cc4)c(=O)nc3[nH]2)c1` [Compound 147], the minimal inhibitory concentration (MIC) was above 16 µg/mL.
Regarding `C[C@H](N)CCCc1cc(-c2cc3cn(-c4ccc([C@H](Cc5c[nH]nn5)NCCCNC(=N)N)cc4)c(=O)nc3[nH]2)cc(C(F)(F)F)c1` [Compound 47], the minimal inhibitory concentration (MIC) is below 16 µg/mL.
With `C=CCN(CCCN[C@@H](C)c1ccc(-n2cc3cc(-c4cc(CCC[C@H](C)N)cc(Cl)c4F)[nH]c3nc2=O)cc1)C(=N)N` [Compound 212] the figure was below 16 µg/mL.

The term MIC denotes the least concentration at which growth counts as inhibited.

(Values after patent US10815238B2, “Antimicrobial compounds and methods of making and using the same” (BIOVERSYS AG, priority 2013, dated 2020).)
